pKd: −log10 of the molar value.
Columns and labels:
[1] = target: T1, aggregated Aβ(1-42) peptides (Homo sapiens, UniProt P05067); assay: Fluorescence spectra before and after mixing with preaggregated Aβ(1-42) (Cmpds 8a-8d, 11, 14, 19); format: binding; details: for Emission max before binding / Excitation max before binding: 4 μM compound in PBS, without Aβ; for Emission max before binding / Excitation max before binding / Emission max after binding / Excitation max after binding: 25° C.; for Fold increase (fluorescence intensity after binding) / Emission max after binding / Excitation max after binding: 4 μM compound, 5 μM aggregated Aβ(1-42); for Emission max after binding / Excitation max after binding: PBS
T1 construct: preaggregated Aβ(1-42) peptides
T1 sequence (P05067 672-713 limits assumed): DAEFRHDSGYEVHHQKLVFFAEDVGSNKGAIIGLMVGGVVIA
Excerpt: An initial study to determine whether a compound can associate with aggregated Aβ is to compare its fluorescence spectra before and after mixing with the Aβ aggregates. See E. E. Nesterov, J. Skoch, B. T. Hyman, W. E. Klunk, B. J. Bacskai, T. M. Swager, Angew. Chem. Int. Edit. 2005, 44:5452-5456; Z. P. Zhuang, M. P. Kung, H. F. Kung, J. Med. Chem. 2006, 49:2841-2844; Q. A. Li, J. S. Lee, C. Ha, C. B. Park, G. Yang, W. B. Gan, Y. T. Chang, Angew. Chem. Int. Edit. 2004, 43:6331-6335; H. F. Kung, C. W. Lee, Z. P. Zhuang, M. P. Kung, C. Hou, K. Plossl, J. Am. Chem. Soc. 2001, 123:12740-12741. […] See H. LeVine III, Protein Sci. 1993, 2:404-410. Along these lines we measured the fluorescent properties of each compound at 4 μM concentration before and after mixing with preaggregated Aβ(1-42) peptides (5 μM, aggregated in PBS buffer for 3 days at 25° C.).
Aggregated Aβ peptide was prepared by dissolving Aβ(1-42) in PBS pH 7.4 to a final concentration of 100 μM. This solution was magnetically stirred at 1200 rpm for 3 days at room temperature. The 100 μM Aβ(1-42) stock solution in PBS was aliquoted and frozen at […] for up to 4 weeks without noticeable change in its property. 150 μL of pre-aggregated Aβ(1-42) was added to 2.85 mL of compound to attain a final concentration of 5 μM Aβ(1-42) and 4 μM of compound. The solution was transferred to 3 mL cuvette and the fluorescence measured at 25° C. […] The fluorescence excitation spectra of Cmpds 8a, 8b, 8c, 14 and 19 are depicted in FIG. 4, respectively.

[2] = target: T2, pre-aggregated Aβ(1-42) peptide (Homo sapiens, UniProt P05067); assay: Apparent binding constant (Kd) by double reciprocal fluorescence plot; details: compound 10, 5, 2.5, 1.25 μM; 5.0 μM pre-aggregated Aβ(1-42); PBS pH 7.4
T2 construct: preaggregated Aβ(1-42) peptides
T2 sequence (P05067 672-713 limits assumed): as above
Experimental: We also measured the apparent binding constants (Kd) of the compounds (in concentrations of 10, 5, 2.5 and 1.25 μM) to 5.0 μM pre-aggregated Aβ(1-42) peptide. The Kd can be measured from the double reciprocal of the fluorescent maximum and the concentration of the compound. See H. LeVine III, Protein Sci. 1993, 2:404-410. […] [22,] See LeVine, Id.; Lockhart, L. Ye, D. B. Judd, A. T. Merritt, P. N. Lowe, J. L. Morgenstern, G. Z. Hong, A. D. Gee, J. Brown, J. Biol. Chem. 2005, 280:7677-7684; M. Biancalana, K. Makabe, A. Koide, S. Koide, J. Mol. Biol. 2008, 383:205-213; M. Biancalana, K. Makabe, A. Koide, S. Koide, J. Mol. Biol. 2009, 385:1052-1063. The Kd corresponds to the −1/(x-intercept) of the linear regression.
Pre-aggregated Aβ(1-42) (5 μM final concentration) was mixed with various concentrations of compounds described herein (10, 5, 2.5, 1.25 μM) in PBS buffer (pH 7.4) and their fluorescence was measured. The negative inverse of the x-intercept of the linear regression, that was drawn between the double reciprocal of the fluorescence intensity maximum and concentration of the compound, represents the compound binding constant (Kd) to Aβ(1-42).
In order to quantify the dissociation constants (Kd's) for the binding of fluorescent compounds with aggregated β-amyloid peptides, we used the method described by LeVine (see H. LeVine III, Protein Sci. 1993, 2, 404-410). This method is similar to the method described by Benesi-Hildebran (see C. Yang, L. Liu, T. W. Mu, Q. X. Guo, Anal. Sci. 2000, 16, 537-539). Here, the fluorescence of the compound was measured with and without the addition of the aggregated peptides in solution. The relative fluorescence enhancement of the compound upon binding to aggregated β-amyloid peptides was determined by taking the difference between F (fluorescence after the addition of aggregated peptides) and F (fluorescence before the addition of aggregated peptides).
In order to estimate the binding constant (Kd) for the compound-Aβ complexes from the fluorescence studies, we made the following assumptions: • 1. All compounds are completely in solution and free of any significant competing binding process such as self-aggregation. • 2. The concentration of unbound compounds can be approximated as close to the total concentration of the compounds. • 3. The binding sites in the aggregated Aβ peptides are not completely occupied at the concentration of Aβ-binding compounds used for the fluorescence studies (i.e., the experiments are carried out under non-saturated binding conditions).
FIG. 2 and FIG. 6 provide double reciprocal plots of the measured fluorescence versus total concentration of compound [GO]. Assuming that [G] can be approximated as close to [GO] (assumption 2), we can obtain estimates for the Kd's of the compound-Aβ complexes from the x-intercept of the linear fits of the data for each compound.

| Structure (SMILES) | Emission max before binding [1] | Excitation max before binding [1] | Fold increase (fluorescence intensity after binding) [1] | Emission max after binding [1] | Excitation max after binding [1] | pKd [2] | Red shift of emission upon binding ([1]; binding to preaggregated Aβ) |
| --- | --- | --- | --- | --- | --- | --- | --- |
| COCCOCCOCCOC(=O)/C(C#N)=C/c1ccc2cc(N3CCCCC3)ccc2c1 [Cmpd 11, (E)-2-(2-(2-methoxyethoxyl)ethoxy)ethyl-2-cyano-3-(6-(piperidin-1-yl)naphthalen-2-yl)acrylate] | 462 nm | 445 nm | 9.3 fold | 538 nm | 440 nm | 5.60 | 76 nm |
| CN(C)c1ccc(/C=C(\C#N)C(=O)OCC(O)CO)cc1 (stereo not shown) [Cmpd 14, (E)-2,3-dihydroxypropyl 2-cyano-3-(4-(dimethylamino)phenyl) acrylate] | 476 nm | 437 nm | 2.2 fold | 467 nm | 434 nm | 5.48 |  |

Now from value to compound:

| Emission max before binding [1] | Excitation max before binding [1] | Fold increase (fluorescence intensity after binding) [1] | Emission max after binding [1] | Excitation max after binding [1] | pKd [2] | Red shift of emission upon binding ([1]; binding to preaggregated Aβ) | Structure (SMILES) |
| --- | --- | --- | --- | --- | --- | --- | --- |
| 478 nm | 445 nm | 4.2 fold | 470 nm | 442 nm | 5.32 |  | CCN(CC)c1ccc(C=C(C#N)C(=O)OCCOCCOCCOC)cc1 (stereo in doubt) [Cmpd 8c, (Z)-2-(2-(2-methoxyethoxyl)ethoxy)ethyl 2-cyano-3-(4-(diethylamino)phenyl)acrylate] |
| 466 nm | 432 nm | 9.4 fold | 468 nm | 440 nm | 5.36 |  | CCCCN(CCCC)c1ccc(C=C(C#N)C(=O)OCCOCCOCCOC)cc1 (stereo in doubt) [Cmpd 8d, (Z)-2-(2-(2-methoxyethoxyl)ethoxy)ethyl-2-cyano-3-(4-(dibutylamino)phenyl)acrylate] |
| 476 nm | 439 nm | 1.8 fold | 470 nm | 435 nm | 5.59 |  | COCCOCCOCCOC(=O)/C(C#N)=C/c1ccc(N(C)C)cc1 [Cmpd 8a, (E)-2-(2-(2-methoxyethoxyl)ethoxy)ethyl 2-cyano-3-(4-(dimethylamino)phenyl)acrylate] |
| 478 nm | 442 nm | 1.3 fold | 469 nm | 444 nm | 5.28 |  | COCCOCCOCCOC(=O)/C(C#N)=C/c1ccc(N(C)C)cc1OC [Cmpd 8b, (E)-2-(2-(2-methoxyethoxyl)ethoxy)ethyl 2-cyano-3-(4-(dimethylamino)-2-methoxyphenyl)acrylate] |

— patent US9551722B2, “Amyloid binding agents” (The Regents of the University of California, priority 2009, dated 2017)
